What all share (test): relative viability (nuclei count vs DMSO), 5 days (fraction); higher = more cells survive
Compound in experiment [1]: CC1=C(C(=NN1)C)CC2=C(C3=C(S2)N(C(=O)N(C3=O)C)CC(C)C)C(=O)N4C[C@@H](CO4)O + C[C@@H](Oc1cc(-c2cnn(C3CCNCC3)c2)cnc1N)c1c(Cl)ccc(F)c1Cl [Crizotinib] (partner 1 µM)
The procedure, abridged: (§1)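 Values are medians from duplicate plates. Each reflects relative viability, defined as the nuclei count of treated wells over that of vehicle wells. Lung cancer cell lines in 1536-well plates were pin-tool dosed one day after seeding with one drug alone or with a fixed anchor-drug dose plus five library-drug doses (not always all listed) in √10 steps, then fixed, stained and imaged at 4× after 5 days.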

Compound in experiment [2]: CC1=C(C(=NN1)C)CC2=C(C3=C(S2)N(C(=O)N(C3=O)C)CC(C)C)C(=O)N4C[C@@H](CO4)O + CCNC(=O)c1noc(-c2cc(C(C)C)c(O)cc2O)c1-c1ccc(CN2CCOCC2)cc1 [Luminespib] (partner 0.01 µM)
An outline of the steps:
as §1

Compound in the experiment “IDH-C35 + OSI-027”: Cc1ccccc1C(C(=O)NC1CCCCC1)N(C(=O)Cn1ccnc1C)c1cccc(F)c1 [IDH-C35] + COc1cccc2cc(-c3nc([C@H]4CC[C@H](C(=O)O)CC4)n4ncnc(N)c34)[nH]c12 [OSI-027] (partner 0.5 µM)
An outline of the steps:
as §1

Compound in experiment [3]: CC1=C(C(=NN1)C)CC2=C(C3=C(S2)N(C(=O)N(C3=O)C)CC(C)C)C(=O)N4C[C@@H](CO4)O + Nc1nc2[nH]cc(CCc3ccc(C(=O)N[C@@H](CCC(=O)O)C(=O)O)cc3)c2c(=O)[nH]1 [Pemetrexed] (partner 0.2 µM)
An outline of the steps: as §1

For the cell line NCI-H1666, the relative viability is 1.04 in experiment [1] (first compound 0.0025 µM); 1.16 in experiment [1] (first compound 0.007906 µM); 1.05 in experiment [1] (first compound 0.025 µM); 0.977 in experiment [1] (first compound 0.07906 µM); 1.08 in experiment [1] (first compound 0.25 µM); 0.991 in experiment [2] (first compound 0.0025 µM). Further, the relative viability came out at 1 in experiment [2] (first compound 0.007906 µM); 1.06 in experiment [2] (first compound 0.025 µM); 1.04 in experiment [2] (first compound 0.07906 µM); 1.1 in experiment [2] (first compound 0.25 µM); 0.828 in the experiment with IDH-C35 + OSI-027 (first compound 0.08 µM); 0.81 with IDH-C35 + OSI-027 (first compound 0.253 µM). The relative viability in the experiment with IDH-C35 + OSI-027 (first compound 0.8 µM) stood at 0.865; with IDH-C35 + OSI-027 (first compound 2.53 µM), 0.845; with IDH-C35 + OSI-027 (first compound 8 µM), 0.841; in experiment [3] (first compound 0.0025 µM) it was 0.886; in experiment [3] (first compound 0.007906 µM), 0.925; in experiment [3] (first compound 0.025 µM), 0.857. Besides, the relative viability in experiment [3] (first compound 0.07906 µM) was determined as 0.906; in experiment [3] (first compound 0.25 µM), 0.866.

On to NCI-H1734, for which the relative viability in experiment [1] (first compound 0.0025 µM) stood at 0.773; in experiment [1] (first compound 0.007906 µM) it was 0.517; in experiment [1] (first compound 0.025 µM), 0.641; in experiment [1] (first compound 0.07906 µM), 0.614; in experiment [1] (first compound 0.25 µM), 0.562; in experiment [2] (first compound 0.0025 µM), 0.297. For the same cell line, the relative viability worked out at 0.184 in experiment [2] (first compound 0.007906 µM); 0.173 in experiment [2] (first compound 0.025 µM); 0.184 in experiment [2] (first compound 0.07906 µM); 0.167 in experiment [2] (first compound 0.25 µM); 0.643 in the experiment with IDH-C35 + OSI-027 (first compound 0.08 µM); 0.621 with IDH-C35 + OSI-027 (first compound 0.253 µM). Besides, the relative viability came out at 0.564 with IDH-C35 + OSI-027 (first compound 0.8 µM); 0.6 with IDH-C35 + OSI-027 (first compound 2.53 µM); 0.597 with IDH-C35 + OSI-027 (first compound 8 µM); 0.412 in experiment [3] (first compound 0.0025 µM); 0.426 in experiment [3] (first compound 0.007906 µM); 0.436 in experiment [3] (first compound 0.025 µM). Further, the figures for the relative viability in experiment [3] (first compound 0.07906 µM) and in experiment [3] (first compound 0.25 µM) were 0.467 and 0.423, respectively.

NCI-H1755: the relative viability in experiment [1] (first compound 0.0025 µM) is 0.876; in experiment [1] (first compound 0.007906 µM), 0.952; in experiment [1] (first compound 0.025 µM), 0.941; in experiment [1] (first compound 0.07906 µM), 0.877; in experiment [1] (first compound 0.25 µM), 0.967; in experiment [2] (first compound 0.0025 µM), 0.592. For the same cell line, the relative viability in experiment [2] (first compound 0.007906 µM) came out at 0.511; in experiment [2] (first compound 0.025 µM) it was 0.524; in experiment [2] (first compound 0.07906 µM), 0.356; in experiment [2] (first compound 0.25 µM), 0.438; with IDH-C35 + OSI-027 (first compound 0.08 µM), 0.754; with IDH-C35 + OSI-027 (first compound 0.253 µM), 0.64. The relative viability was found to be 0.707 with IDH-C35 + OSI-027 (first compound 0.8 µM); 0.68 in the experiment with IDH-C35 + OSI-027 (first compound 2.53 µM); 0.706 in the experiment with IDH-C35 + OSI-027 (first compound 8 µM); 0.42 in experiment [3] (first compound 0.0025 µM); 0.424 in experiment [3] (first compound 0.007906 µM); 0.424 in experiment [3] (first compound 0.025 µM). In addition, the relative viability stood at 0.425 in experiment [3] (first compound 0.07906 µM) and 0.422 in experiment [3] (first compound 0.25 µM).

Regarding NCI-H1792, the relative viability turned out to be 1.04 in experiment [1] (first compound 0.0025 µM); 0.976 in experiment [1] (first compound 0.007906 µM); 0.901 in experiment [1] (first compound 0.025 µM); 0.855 in experiment [1] (first compound 0.07906 µM); 0.786 in experiment [1] (first compound 0.25 µM); 0.458 in experiment [2] (first compound 0.0025 µM). Further, the relative viability came out at 0.488 in experiment [2] (first compound 0.007906 µM); 0.416 in experiment [2] (first compound 0.025 µM); 0.338 in experiment [2] (first compound 0.07906 µM); 0.379 in experiment [2] (first compound 0.25 µM); 0.725 with IDH-C35 + OSI-027 (first compound 0.08 µM); 0.718 with IDH-C35 + OSI-027 (first compound 0.253 µM). The relative viability was 0.705 in the experiment with IDH-C35 + OSI-027 (first compound 0.8 µM); 0.742 with IDH-C35 + OSI-027 (first compound 2.53 µM); 0.75 in the experiment with IDH-C35 + OSI-027 (first compound 8 µM); 0.932 in experiment [3] (first compound 0.0025 µM); 0.6 in experiment [3] (first compound 0.007906 µM); 0.768 in experiment [3] (first compound 0.025 µM). The relative viability was found to be 0.644 in experiment [3] (first compound 0.07906 µM) and 0.719 in experiment [3] (first compound 0.25 µM).

As to NCI-H1915, the relative viability is 0.959 in experiment [1] (first compound 0.0025 µM); 0.92 in experiment [1] (first compound 0.007906 µM); 0.836 in experiment [1] (first compound 0.025 µM); 0.884 in experiment [1] (first compound 0.07906 µM); 1.01 in experiment [1] (first compound 0.25 µM); 0.868 in experiment [2] (first compound 0.0025 µM). In addition, the relative viability stood at 0.738 in experiment [2] (first compound 0.007906 µM); 0.75 in experiment [2] (first compound 0.025 µM); 0.768 in experiment [2] (first compound 0.07906 µM); 0.816 in experiment [2] (first compound 0.25 µM); 0.645 with IDH-C35 + OSI-027 (first compound 0.08 µM); 0.602 in the experiment with IDH-C35 + OSI-027 (first compound 0.253 µM). Also, the relative viability with IDH-C35 + OSI-027 (first compound 0.8 µM) stood at 0.62; with IDH-C35 + OSI-027 (first compound 2.53 µM), 0.597; with IDH-C35 + OSI-027 (first compound 8 µM) it was 0.56; in experiment [3] (first compound 0.0025 µM) it was 0.497; in experiment [3] (first compound 0.007906 µM), 0.465; in experiment [3] (first compound 0.025 µM), 0.466. The relative viability amounted to 0.497 in experiment [3] (first compound 0.07906 µM) and 0.53 in experiment [3] (first compound 0.25 µM).

As to NCI-H1944, the relative viability in experiment [1] (first compound 0.0025 µM) came out at 1.15; in experiment [1] (first compound 0.007906 µM) it was 1.25; in experiment [1] (first compound 0.025 µM), 1.15; in experiment [1] (first compound 0.07906 µM) it was 1.06; in experiment [1] (first compound 0.25 µM), 1.08; in experiment [2] (first compound 0.0025 µM) it was 0.81. For the same cell line, the relative viability was 1.11 in experiment [2] (first compound 0.007906 µM); 0.714 in experiment [2] (first compound 0.025 µM); 0.698 in experiment [2] (first compound 0.07906 µM); 0.801 in experiment [2] (first compound 0.25 µM); 0.418 with IDH-C35 + OSI-027 (first compound 0.08 µM); 0.415 with IDH-C35 + OSI-027 (first compound 0.253 µM). Also, the relative viability with IDH-C35 + OSI-027 (first compound 0.8 µM) is 0.413; with IDH-C35 + OSI-027 (first compound 2.53 µM) it was 0.442; in the experiment with IDH-C35 + OSI-027 (first compound 8 µM), 0.392; in experiment [3] (first compound 0.0025 µM), 0.614; in experiment [3] (first compound 0.007906 µM) it was 0.681; in experiment [3] (first compound 0.025 µM) it was 0.609. Moreover, the relative viability was 0.594 in experiment [3] (first compound 0.07906 µM) and 0.622 in experiment [3] (first compound 0.25 µM).

As to NCI-H1975, the relative viability in experiment [1] (first compound 0.0025 µM) was determined as 0.942; in experiment [1] (first compound 0.007906 µM), 1; in experiment [1] (first compound 0.025 µM) it was 1; in experiment [1] (first compound 0.07906 µM) it was 0.869; in experiment [1] (first compound 0.25 µM) it was 1.08; in experiment [2] (first compound 0.0025 µM), 0.237. Besides, the relative viability in experiment [2] (first compound 0.007906 µM) worked out at 0.294; in experiment [2] (first compound 0.025 µM) it was 0.168; in experiment [2] (first compound 0.07906 µM), 0.16; in experiment [2] (first compound 0.25 µM), 0.147; in the experiment with IDH-C35 + OSI-027 (first compound 0.08 µM) it was 0.64; with IDH-C35 + OSI-027 (first compound 0.253 µM), 0.71. Also, the relative viability in the experiment with IDH-C35 + OSI-027 (first compound 0.8 µM) was 0.778; in the experiment with IDH-C35 + OSI-027 (first compound 2.53 µM), 0.741; with IDH-C35 + OSI-027 (first compound 8 µM) it was 0.763; in experiment [3] (first compound 0.0025 µM), 0.317; in experiment [3] (first compound 0.007906 µM) it was 0.297; in experiment [3] (first compound 0.025 µM), 0.283. Moreover, the relative viability in experiment [3] (first compound 0.07906 µM) was 0.268; in experiment [3] (first compound 0.25 µM), 0.287.

The values are drawn from the supplement of paper PMC10307832.
